Assay results as given in patent publication US20230212549A1, “COMPOUNDS COMPRISING A […] LIGAND AND USE THEREOF” (priority 2021, published 2023).
Numbered stars: 1 amine (or outer) side, 2 acyl side, 3 side chain; on linkers, the order of the positions; unused ones are H or OH. Bridge positions count the residues as written; N and C are the ends. Square brackets hold non-standard residues; d marks the D form. Peptide text beside a SMILES is read from it. * marks the point of attachment. X1 = NCCNCC(CNCCN)C(=O)N1CCN(CC(=O)NCCCOCCOCCOCCCN*)CC1; mXylylene = c1cc(C[*:1])cc(C[*:2])c1; Suc = O=C(CCC(=O)[*:2])[*:1]; Nle = CCCC[C@H](N)C(=O)O

Tests used:
Human recombinant FAP [1] = molecular target: T1, Human recombinant FAP (Homo sapiens, UniProt Q12884); assay: FRET-based FAP protease activity assay; assay type: biochemical; set-up: purchased R&D systems 3715-SE; conditions: pIC50 Category (activity), Recombinant human FAP
T1 sequence (Q12884 whole entry): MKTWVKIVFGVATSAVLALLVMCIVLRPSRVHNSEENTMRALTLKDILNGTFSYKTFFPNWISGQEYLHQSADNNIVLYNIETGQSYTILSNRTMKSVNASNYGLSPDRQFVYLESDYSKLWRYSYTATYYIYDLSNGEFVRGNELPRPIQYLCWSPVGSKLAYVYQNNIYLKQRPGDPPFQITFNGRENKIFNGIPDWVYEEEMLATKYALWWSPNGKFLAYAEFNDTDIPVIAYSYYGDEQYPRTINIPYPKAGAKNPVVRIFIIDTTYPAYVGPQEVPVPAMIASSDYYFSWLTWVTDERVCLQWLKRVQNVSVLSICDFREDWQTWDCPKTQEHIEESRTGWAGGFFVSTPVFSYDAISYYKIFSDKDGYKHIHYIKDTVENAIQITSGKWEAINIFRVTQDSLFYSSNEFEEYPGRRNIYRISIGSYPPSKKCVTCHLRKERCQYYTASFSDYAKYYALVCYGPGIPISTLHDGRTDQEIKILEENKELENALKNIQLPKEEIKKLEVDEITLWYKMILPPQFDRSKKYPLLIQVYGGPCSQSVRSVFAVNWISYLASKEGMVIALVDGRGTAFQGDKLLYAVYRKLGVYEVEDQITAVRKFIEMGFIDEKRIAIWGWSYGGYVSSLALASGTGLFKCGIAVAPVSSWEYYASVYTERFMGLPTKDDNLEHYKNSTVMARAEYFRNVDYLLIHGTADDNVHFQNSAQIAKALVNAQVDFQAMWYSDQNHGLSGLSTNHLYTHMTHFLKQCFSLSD

[2] = molecular target: T2, FAP-expressing human WI-38 fibroblasts (Homo sapiens, UniProt Q12884); assay: Competitive FACS binding assay
T2 construct: FAP-expressing human WI-38 fibroblasts (ECACC) were cultured in EMEM; host or cells: WI-38 human fibroblasts
T2 sequence (Q12884 whole entry): as above
Method: Cells were analyzed in an Attune NxT flow cytometer. […] […].
Cells were analyzed in an Attune NxT flow cytometer. […]

in vivo [3] = conditions: swiss nude, mouse, iv
[4] = Radiochemical purity by HPLC of ^99mTc-labeled compounds; assay type: physicochemical; conditions: 99Tc-labeled compounds
Method: 100-500 MBq of ^99mTcO4 (in saline) were mixed with 11 μl of 0.5 M phosphate buffer pH 11.5-12.0 and 1.1 μl of 0.1 M trisodium citrate per 100 μl radionuclide solution. […] The mixture was incubated for 30 min at 25-50′° C. At the end of the incubation time, the mixture was neutralized with 3.0 μl 1 M HCl per 10 μl phosphate buffer and TWEEN-20 was added at a final concentration of 0.100.

in vivo [5] = conditions: female, athymic nude, mouse, iv, ^68Ga-labeled, PET/CT; for tissue uptake at 0.25 h: 0.25 h post tracer injection; for tissue uptake at 1 h: 1 h post tracer injection; for tissue uptake at 3 h: 3 h post tracer injection
Human recombinant FAP [6] = molecular target: T1, Human recombinant FAP; assay: Surface plasmon resonance (Biacore) assay; assay type: binding

Structure (SMILES)	IC50 (Human recombinant FAP [1]) [nM]	IC50 [2] [nM]	tissue uptake at 1 h (in vivo [3]; blood pool surrogate (BPS)) [%ID/g]	tissue uptake at 3 h (in vivo [3]; blood pool surrogate (BPS)) [%ID/g]	tissue uptake at 6 h (in vivo [3]; blood pool surrogate (BPS)) [%ID/g]	tissue uptake at 1 h (in vivo [3]; kidneys) [%ID/g]	tissue uptake at 3 h (in vivo [3]; kidneys) [%ID/g]	tissue uptake at 6 h (in vivo [3]; kidneys) [%ID/g]	tissue uptake at 1 h (in vivo [3]; tumor) [%ID/g]	tissue uptake at 3 h (in vivo [3]; tumor) [%ID/g]	tissue uptake at 6 h (in vivo [3]; tumor) [%ID/g]	HPLC Area % appr. 4 h post end of synthesis [4] [%]	HPLC Area % at end of synthesis [4] [%]	further results
CCCC[C@H](NC(=O)CCC(=O)NCCCOCCOCCOCCCNC(=O)CN1CCN(C(=O)C(CNCCN)CNCCN)CC1)C(=O)N[C@H]1CSCc2cccc(c2)CSC[C@@H](C(=O)N[C@@H](CC(=O)O)C(=O)O)NC(=O)[C@H](Cc2ccccc2)NC(=O)[C@H](CCC(=O)O)NC(=O)[C@H]([C@@H](C)O)NC(=O)[C@@H]2CCCN2C(=O)[C@@H]2CCCN2C1=O [3BP-4785, N4Ac-PPAc-Ttds-Nle-[Cys(3MeBn)-Pro-Pro-Thr-Glu-Phe-Cys]-Asp-OH] ({X1-Suc}-[Nle]CPPTEFCD-OH; linker 2-8 via mXylylene)	< 10	< 10	0.92	0.64	0.48	3.47	2.14	1.63	4.2	4.14	4.32	93.8	95.3	
CCCC[C@H](NC(=O)CCC(=O)NCCCOCCOCCOCCCNC(=O)CCOCCOCCOCCOCCOCCOCCNC(=O)C(CNCCN)CNCCN)C(=O)N[C@H]1CSCc2cccc(c2)CSCC(C(=O)O)NC(=O)[C@H](Cc2ccccc2)NC(=O)[C@H](CCC(N)=O)NC(=O)[C@H]([C@@H](C)O)NC(=O)[C@@H]2CCCN2C(=O)[C@@H]2CCCN2C1=O (stereo partly drawn) [3BP-4552, N4Ac-PEG6-Ttds-Nle-[Cys(3MeBn)-Pro-Pro-Thr-Gln-Phe-Cys]-OH]	10 to 79.4	10 to 79.4	0.52	0.14	0.07	3.17	3.4	1.34	7.92	6.86	5.21		88.3	
CCCCNC(=O)N[C@H]1CSCc2cc(CSCCNC(=O)CCP(=O)(O)CN3CCN(CP(=O)(O)CO)CCN(CP(=O)(O)CO)CC3)cc(c2)CSCC(C(=O)O)NC(=O)[C@H](Cc2ccccc2)NC(=O)[C@H](CCC(N)=O)NC(=O)[C@H]([C@@H](C)O)NC(=O)[C@@H]2CCCN2C(=O)[C@@H]2CCCN2C1=O (stereo partly drawn) [3BP-4768, nBu-CAyl-[Cys(tMeBn(NOPO-AET))-Pro-Pro-Thr-Gln-Phe-Cys]-OH]	< 10	< 10												tissue uptake at 0.25 h (in vivo [5]; blood pool surrogate (BPS), uptake BPS 0.25 h, BPS (blood pool surrogate)): 2.54 %ID/g; tissue uptake at 1 h (in vivo [5]; blood pool surrogate (BPS), uptake BPS 1 h, BPS (blood pool surrogate)): 0.78 %ID/g; tissue uptake at 3 h (in vivo [5]; blood pool surrogate (BPS), uptake BPS 3 h, BPS (blood pool surrogate)): 0.27 %ID/g; tissue uptake at 0.25 h (in vivo [5]; kidneys, uptake Kidneys 0.25 h): 18.4 %ID/g; tissue uptake at 1 h (in vivo [5]; kidneys, uptake Kidneys 1 h): 2.45 %ID/g; tissue uptake at 3 h (in vivo [5]; kidneys, uptake Kidneys 3 h): 0.67 %ID/g; tissue uptake at 0.25 h (in vivo [5]; tumor, uptake Tumor 0.25 h, HEK-FAP tumor): 7.82 %ID/g; tissue uptake at 1 h (in vivo [5]; tumor, uptake Tumor 1 h, HEK-FAP tumor): 9.42 %ID/g; tissue uptake at 3 h (in vivo [5]; tumor, uptake Tumor 3 h, HEK-FAP tumor): 9.2 %ID/g; Kd (Human recombinant FAP [6]): < 10 nM
CCCC[C@H](NC(=O)CCC(=O)NCCCOCCOCCOCCCNC(=O)CN1CCN(C(=O)C(CNCCN)CNCCN)CC1)C(=O)N[C@H]1CSCc2cncc(c2)CSCC(C(=O)O)NC(=O)[C@H](Cc2ccccc2)NC(=O)[C@H](CCC(N)=O)NC(=O)[C@H]([C@@H](C)O)NC(=O)[C@@H]2CCCN2C(=O)[C@@H]2CCCN2C1=O (stereo partly drawn) [3BP-4774, N4Ac-PPAc-Ttds-Nle-[Cys(3Lut)-Pro-Pro-Thr-Gln-Phe-Cys]-OH]	10 to 79.4	10 to 79.4	0.08	0.06	0.03	1.87	0.85	0.48	6.14	3.7	1.74	86.1	88.8	
